Experiment [1] addresses T1, Replicative DNA helicase DnaB (Mycobacterium tuberculosis, UniProt P9WMR3).
T1 sequence (P9WMR3 whole entry): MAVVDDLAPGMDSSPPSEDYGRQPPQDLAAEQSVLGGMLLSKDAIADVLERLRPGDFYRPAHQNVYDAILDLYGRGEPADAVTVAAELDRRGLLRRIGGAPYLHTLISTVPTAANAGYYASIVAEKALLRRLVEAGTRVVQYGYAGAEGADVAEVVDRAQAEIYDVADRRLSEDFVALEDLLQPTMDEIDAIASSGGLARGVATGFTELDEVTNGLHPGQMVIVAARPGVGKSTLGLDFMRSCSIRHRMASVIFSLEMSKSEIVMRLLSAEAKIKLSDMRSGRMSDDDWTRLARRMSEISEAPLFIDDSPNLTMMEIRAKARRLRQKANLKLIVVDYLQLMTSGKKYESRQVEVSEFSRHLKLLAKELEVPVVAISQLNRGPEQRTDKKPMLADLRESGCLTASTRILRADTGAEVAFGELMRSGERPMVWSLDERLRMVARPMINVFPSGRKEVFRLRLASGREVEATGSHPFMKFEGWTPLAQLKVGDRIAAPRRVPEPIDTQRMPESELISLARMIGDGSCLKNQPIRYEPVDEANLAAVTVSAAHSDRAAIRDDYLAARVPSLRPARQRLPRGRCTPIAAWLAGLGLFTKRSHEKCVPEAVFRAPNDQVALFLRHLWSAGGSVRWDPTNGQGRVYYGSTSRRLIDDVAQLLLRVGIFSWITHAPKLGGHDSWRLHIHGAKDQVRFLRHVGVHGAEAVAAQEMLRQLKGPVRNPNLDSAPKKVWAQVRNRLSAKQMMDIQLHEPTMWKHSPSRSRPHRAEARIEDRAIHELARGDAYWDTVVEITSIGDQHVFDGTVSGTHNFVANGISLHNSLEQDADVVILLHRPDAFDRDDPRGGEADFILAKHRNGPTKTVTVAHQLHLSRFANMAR
Briefly: DnaB intein splicing inhibitors, dose response, biochemical, cell-free fluorescence (AID 449749). It counts as functional.

Experiment [2] concerns the target Mitochondrial peptide methionine sulfoxide reductase (Bos taurus, UniProt P54149). Briefly: Absorbance-based biochemical high throughput dose response assay for activators of Methionine sulfoxide reductase A (MsrA). It counts as functional.
The target in experiment [3] is T2, Zinc finger protein mex-5 (Caenorhabditis elegans, UniProt Q9XUB2).
T2 sequence (Q9XUB2 whole entry): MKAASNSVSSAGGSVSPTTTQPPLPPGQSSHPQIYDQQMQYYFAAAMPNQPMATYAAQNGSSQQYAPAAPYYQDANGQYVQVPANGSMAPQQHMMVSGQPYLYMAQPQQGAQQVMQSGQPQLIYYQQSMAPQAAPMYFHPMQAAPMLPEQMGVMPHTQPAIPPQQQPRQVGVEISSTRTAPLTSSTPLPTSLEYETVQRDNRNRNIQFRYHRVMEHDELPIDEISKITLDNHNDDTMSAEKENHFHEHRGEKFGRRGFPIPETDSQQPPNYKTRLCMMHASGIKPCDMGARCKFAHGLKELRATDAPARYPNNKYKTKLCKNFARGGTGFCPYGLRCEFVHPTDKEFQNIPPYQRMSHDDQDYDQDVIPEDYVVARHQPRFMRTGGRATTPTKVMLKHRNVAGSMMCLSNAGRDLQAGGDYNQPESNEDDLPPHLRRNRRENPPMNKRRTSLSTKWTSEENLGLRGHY
Kind of experiment: potency of MEX-5 RNA-binding blockers – biochemical, C. elegans, fluorescence polarization, dose response (AID 1960).

The target of another experiment is T3, ORF 73 (Human herpesvirus 8, UniProt O40947).
T3 sequence (O40947 whole entry): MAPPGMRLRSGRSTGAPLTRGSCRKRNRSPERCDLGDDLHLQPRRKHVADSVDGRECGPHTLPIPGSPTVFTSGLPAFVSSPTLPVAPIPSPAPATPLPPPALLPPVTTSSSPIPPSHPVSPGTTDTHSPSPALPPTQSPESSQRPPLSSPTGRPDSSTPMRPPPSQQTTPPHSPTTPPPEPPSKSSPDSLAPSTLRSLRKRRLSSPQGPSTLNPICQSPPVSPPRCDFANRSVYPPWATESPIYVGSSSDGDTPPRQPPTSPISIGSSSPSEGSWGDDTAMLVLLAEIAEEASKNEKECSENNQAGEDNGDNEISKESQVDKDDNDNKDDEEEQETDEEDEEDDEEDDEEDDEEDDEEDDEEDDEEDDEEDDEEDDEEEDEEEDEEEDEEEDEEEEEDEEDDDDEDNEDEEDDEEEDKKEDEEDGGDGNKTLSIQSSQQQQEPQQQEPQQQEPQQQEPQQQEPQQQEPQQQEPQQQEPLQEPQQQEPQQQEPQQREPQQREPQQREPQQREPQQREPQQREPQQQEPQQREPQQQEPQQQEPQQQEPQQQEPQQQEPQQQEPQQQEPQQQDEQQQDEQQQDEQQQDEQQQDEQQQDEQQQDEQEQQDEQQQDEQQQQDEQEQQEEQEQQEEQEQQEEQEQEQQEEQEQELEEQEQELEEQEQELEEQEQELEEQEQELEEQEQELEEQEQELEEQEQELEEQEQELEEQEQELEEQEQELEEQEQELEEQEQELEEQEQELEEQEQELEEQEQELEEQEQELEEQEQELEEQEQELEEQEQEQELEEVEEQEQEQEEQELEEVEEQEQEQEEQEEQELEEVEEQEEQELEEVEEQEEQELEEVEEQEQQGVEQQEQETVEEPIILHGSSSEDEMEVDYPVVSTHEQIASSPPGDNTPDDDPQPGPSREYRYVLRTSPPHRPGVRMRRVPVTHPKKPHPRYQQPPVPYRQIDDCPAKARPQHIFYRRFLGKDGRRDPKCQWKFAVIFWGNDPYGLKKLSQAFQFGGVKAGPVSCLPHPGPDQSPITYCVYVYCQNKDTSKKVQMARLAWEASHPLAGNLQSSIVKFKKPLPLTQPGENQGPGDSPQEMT
Kind of experiment: KSHV LANA DNA-binding disruption – biochemical, fluorescence polarization, cherry-picked samples, dose response (AID 504725).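 Further: fluorescence polarization of a labeled DNA duplex reporting LANA DNA binding; potency is for inhibitors that block LANA binding to the DNA.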 Details: species or system Human gammaherpesvirus 8.

The target in a further experiment is Cysteine protease ATG4B (Homo sapiens, UniProt Q9Y4P1). Format: functional.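 Further: Fluorescence-based dose-response confirmation assay measuring inhibition of ATG4B activity.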
Chain of Cysteine protease ATG4B (Q9Y4P1 whole entry): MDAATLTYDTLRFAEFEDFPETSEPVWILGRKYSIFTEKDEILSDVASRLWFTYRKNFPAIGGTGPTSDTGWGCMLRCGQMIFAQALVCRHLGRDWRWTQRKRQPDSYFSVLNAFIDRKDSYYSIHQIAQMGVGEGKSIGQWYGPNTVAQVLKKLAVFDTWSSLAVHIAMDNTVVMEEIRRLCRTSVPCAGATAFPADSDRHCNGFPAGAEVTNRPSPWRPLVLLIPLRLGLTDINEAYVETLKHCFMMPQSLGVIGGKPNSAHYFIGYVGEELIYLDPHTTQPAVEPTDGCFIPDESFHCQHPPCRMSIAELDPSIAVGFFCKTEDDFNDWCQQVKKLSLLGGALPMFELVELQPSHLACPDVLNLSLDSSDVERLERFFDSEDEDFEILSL
Experiment [4] concerns the target Serine/threonine-protein kinase 3 (Homo sapiens, UniProt Q13188). It counts as functional.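 Further: measured as one member of a kinome-wide kinase panel.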

The results in this text go back to ChEMBL document CHEMBL1201862, “PubChem BioAssay data set” (2004).

Activity calls are given as the source filed them.

The term AC50 denotes the concentration giving half of the maximal activity seen. For orientation: EC50 means the concentration needed to bring the measured effect to its halfway point. For orientation: IC50 means the concentration needed to halve the response being measured. What is called Ki is the dissociation constant of the complex between target and ligand, obtained from inhibition or displacement.

Chain of Serine/threonine-protein kinase 3 (Q13188 whole entry): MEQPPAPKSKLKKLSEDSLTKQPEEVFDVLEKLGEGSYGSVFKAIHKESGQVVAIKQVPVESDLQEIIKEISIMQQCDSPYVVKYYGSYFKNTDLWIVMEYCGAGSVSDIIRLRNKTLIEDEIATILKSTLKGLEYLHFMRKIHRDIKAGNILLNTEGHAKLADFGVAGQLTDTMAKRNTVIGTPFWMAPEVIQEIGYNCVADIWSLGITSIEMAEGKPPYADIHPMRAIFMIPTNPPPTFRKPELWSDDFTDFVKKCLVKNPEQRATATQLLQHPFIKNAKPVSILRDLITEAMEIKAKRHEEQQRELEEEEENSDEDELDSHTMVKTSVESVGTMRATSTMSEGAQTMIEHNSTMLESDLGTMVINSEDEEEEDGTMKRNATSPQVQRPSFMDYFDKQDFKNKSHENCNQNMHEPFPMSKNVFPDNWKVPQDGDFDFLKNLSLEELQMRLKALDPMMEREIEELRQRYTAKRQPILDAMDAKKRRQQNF
Chain of Mitochondrial peptide methionine sulfoxide reductase (P54149 whole entry): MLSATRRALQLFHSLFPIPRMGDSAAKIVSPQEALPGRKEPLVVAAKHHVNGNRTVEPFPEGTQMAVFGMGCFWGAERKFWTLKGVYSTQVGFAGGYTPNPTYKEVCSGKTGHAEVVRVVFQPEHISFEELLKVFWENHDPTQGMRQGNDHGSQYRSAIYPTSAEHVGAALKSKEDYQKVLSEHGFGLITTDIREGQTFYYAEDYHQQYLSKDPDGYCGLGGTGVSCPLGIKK

For the molecule `O=C1C=C(NCc2ccccc2)c2ccccc2C1=O`, in experiment [1], the concentration at half-maximal activity (AC50) is > 380 µM (inconclusive). Moreover, the EC50 in experiment [2] was 63.3 µM (inactive).
Turning to `O=C(O)c1[nH]c2ccccc2c1C(c1cc(Cl)cc([N+](=O)[O-])c1O)c1c(C(=O)O)[nH]c2ccccc12`, in experiment [3], the concentration giving a half-maximal response (EC50) is 9.16 µM (active). For the same molecule, the AC50 at ORF 73 was 88.1 µM (active). In addition, at Cysteine protease ATG4B, the IC50 is 3.46 µM (active).
As for `CCOC(=O)c1cn(-c2ccc(O)cc2C)c2cc(-c3ccncc3)ccc2c1=O`, the Ki in experiment [4] is > 7.94 µM (inactive).
